Values quoted from earlier work in PMC3433420 (PLoS ONE, 2012).
Read-outs that look alike come from different tables or passages of the source.

Molecular target: SH2 and PTB domains
Settings: ref Jones et al. 2006 / Kaushansky et al. Chem and Biol 2008, cited from earlier work
Text: Supplement pone.0044471.s022.xlsx, sheet "Most recent PM interactions" | column: Kd || Supplement pone.0044471.s022.xlsx, sheet "All original PM interactions" | column: Kd

Substance: PGGDpYAAMGACPd [ErbB3 pY1276, N-terminally rhodamine-labeled 13-mer phosphopeptide]
- Kd (Protein ABL1, original PM interactions): 2000 nM
- Kd (Protein BCAR3, original PM interactions): 2000 nM
- Kd (Protein CRKL, original PM interactions): 440 nM
- Kd (Protein PIK3R3-C, original PM interactions): 500 nM
- Kd (Protein PIK3R3-N, original PM interactions): 500 nM
- Kd (Protein PTK6, original PM interactions): 440 nM
- Kd (Protein SH2B2, original PM interactions): 2000 nM
- Kd (Protein SHC1, original PM interactions): 600 nM
- Kd (Protein SLA2, original PM interactions): 2000 nM
- Kd (Protein SLA, original PM interactions): 2000 nM
- Kd (Protein SYK-NC, original PM interactions): 600 nM
- Kd (Protein TENC1, original PM interactions): 2000 nM
- Kd (Protein VAV1, original PM interactions): 2000 nM
- Kd (protein ABL2): 150 nM
- Kd (protein CRK): 260 nM
- Kd (protein CRKL): 440 nM
- Kd (protein HCK): 580 nM
- Kd (protein NCK1): 210 nM
- Kd (protein NCK2): 550 nM
- Kd (protein PIK3R1-N): 530 nM
- Kd (protein PIK3R1-NC): 55 nM
- Kd (protein PIK3R2-C): 930 nM
- Kd (protein PIK3R2-N): 120 nM
- Kd (protein PIK3R2-NC): 80 nM
- Kd (protein PIK3R3-C): 500 nM
- Kd (protein PIK3R3-N): 500 nM
- Kd (protein PIK3R3-NC): 14 nM
- Kd (protein PLCG1-C): 690 nM
- Kd (protein PLCG1-NC): 720 nM
- Kd (protein PTK6): 440 nM
- Kd (protein RASA1-N): 910 nM
- Kd (protein SHC1): 600 nM
- Kd (protein SHC3): 640 nM
- Kd (protein SYK-NC): 600 nM
- Kd (protein TXK): 1670 nM
- Kd (protein VAV2): 300 nM
- Kd (protein VAV3): 1540 nM
- Kd (protein ZAP70-C): 1440 nM

Substance: PKQEpYLNPVEENd [ErbB4 pY1162, N-terminally rhodamine-labeled 13-mer phosphopeptide]
- Kd (protein ABL2, all original PM interactions): 320 nM
- Kd (protein ABL2): 280 nM
- Kd (protein CRK, all original PM interactions): 2000 nM
- Kd (protein CRKL, all original PM interactions): 2000 nM
- Kd (protein NCK2, all original PM interactions): 2000 nM
- Kd (protein PIK3R2-N, all original PM interactions): 2000 nM
- Kd (protein PIK3R3-NC, all original PM interactions): 2000 nM
- Kd (protein PLCG1-C, all original PM interactions): 2000 nM
- Kd (protein PLCG1-NC, all original PM interactions): 2000 nM
- Kd (protein PTPN11-N, all original PM interactions): 2000 nM
- Kd (protein RASA1-N, all original PM interactions): 2000 nM
- Kd (protein RASA1-N): 980 nM
- Kd (protein SLA, all original PM interactions): 2000 nM
- Kd (protein SYK-NC, all original PM interactions): 2000 nM
- Kd (protein VAV1, all original PM interactions): 2000 nM
- Kd (protein VAV2, all original PM interactions): 2000 nM
- Kd (protein VAV2): 100 nM
- Kd (protein VAV3, all original PM interactions): 2000 nM

Substance: PLTCSPQPEpYVNQPDVR [ErbB2 1139]
- Kd (Protein ABL1, most recent PM interactions): 160 nM
- Kd (Protein ABL2, most recent PM interactions): 70 nM
- Kd (Protein BCAR3, most recent PM interactions): 1000 nM
- Kd (Protein BMX, most recent PM interactions): 520 nM
- Kd (Protein FGR, most recent PM interactions): 450 nM
- Kd (Protein GRAP2, most recent PM interactions): 960 nM
- Kd (Protein GRB2, most recent PM interactions): 76 nM
- Kd (Protein ITK, most recent PM interactions): 1510 nM
- Kd (Protein NCK2, most recent PM interactions): 780 nM
- Kd (Protein PIK3R1-N, most recent PM interactions): 510 nM
- Kd (Protein PIK3R1-NC, most recent PM interactions): 740 nM
- Kd (Protein PIK3R2-N, most recent PM interactions): 280 nM
- Kd (Protein PIK3R2-NC, most recent PM interactions): 780 nM
- Kd (Protein PIK3R3-C, most recent PM interactions): 1220 nM
- Kd (Protein PIK3R3-N, most recent PM interactions): 400 nM
- Kd (Protein PIK3R3-NC, most recent PM interactions): 300 nM
- Kd (Protein PLCG1-C, most recent PM interactions): 1930 nM
- Kd (Protein PLCG2-NC, most recent PM interactions): 1280 nM
- Kd (Protein PTPN11-NC, most recent PM interactions): 880 nM
- Kd (Protein RASA1-N, most recent PM interactions): 680 nM
- Kd (Protein SH2D2A, most recent PM interactions): 980 nM
- Kd (Protein SH3BP2, most recent PM interactions): 410 nM
- Kd (Protein SYK-NC, most recent PM interactions): 970 nM
- Kd (Protein TENC1, most recent PM interactions): 570 nM
- Kd (Protein TNS3, most recent PM interactions): 770 nM
- Kd (Protein VAV1, most recent PM interactions): 210 nM
- Kd (Protein VAV2, most recent PM interactions): 230 nM
